The values that follow come from US7101854B2, “Tetrapeptide stimulating the functional activity of hepatocytes, pharmacological substance on its basis and the method of its application” (Sankt-Peterburgskaya Obschestvennaya Organizatsiya …, priority 2000, dated 2006).

Residues, ends and D or L forms follow the SMILES beside them.

One series concerns white mongrel rats. Kind of series: Subacute toxicity, daily intramuscular injection for 90 days. The class given is in vivo. The settings on record: i.m. 1 μg/kg, 0.3 mg/kg, 3 mg/kg daily for 90 days. The procedure:
The animals were intramuscularly injected with the preparation once a day in the doses of 1 μg/kg, 0.3 mg/kg, 3 mg/kg in 0.5 ml of natural saline solution, daily for 90 days. The control animals were administered with natural saline solution in the same amount.
The animals were under daily observation during the whole course of investigation. Their behaviour, food and water consumption, state of hair integument and mucous membranes were noted. The rats were weighed weekly. Before the preparation administration and on the 30th, 60th and 90th days thereof the morphological composition and properties of their peripheral blood were examined. Biochemical and coagulological properties of the blood were studied at the experiment completion.

The test system of series [1] is rats with acute toxic hepatitis. Put plainly: Acute toxic hepatitis induced by CCl4 in rats.
Protocol: Freshly made solution heated to 30–35° C. was introduced into the femoral region at the ratio of 0.5 ml per 100 g of the animal's body weight, daily for 5 days.
In 5 days after the tetrapeptide administration completion, the rats were euthanaised and the investigation results were assessed.
In 20 days after the experiment onset, the rats were euthanaised.
The control animals received natural saline injections according to the same plans.
The state of the animals' liver was assessed by the data of biochemical analysis defining the concentration of protein, bilirubin, cholesterol, alanine aminotransferase (ALT) and aspartate aminotransferase (AST).
Tissue bits were fixed in 10% formalin solution in a 0.1M sodium phosphate buffer (pH 7.4). The histological preparations were stained with haematoxylin-eosin, staining for fat was performed with Sudan-3 and for glycogen—according to McManus.
In the next series the test system is hepatoma-27. Kind of series: Growth of transplanted hepatoma-27 in rats. The settings on record: for Mean life span (days after the tumour transplantation): rats with hepatoma-27; for Tumour growth: tetrapeptide 1 μg/kg s.c. 10 days, stabilised since 30th day, cyclophosphamide 100 μg/kg i.p. once, from 16th day; for Animals with complete tumour resolution: tetrapeptide: days 16, 25, 43, cyclophosphamide: days 28, 32, 41 after transplantation. The class given is in vivo. The procedure: The study was performed on 37 female rats weighing 150-200 g with hepatoma-27 subcutaneously transplanted to the right femur region. […] Cyclophosphamide administered once intraperitoneally in the dose of 100 μg/kg was employed as a positive control. The tumour dynamics and animals' survival rate were assessed in experiments.

For the next series, the system named is white mongrel male mice. Kind of series: Acute toxicity according to Kerber, single intramuscular administration. The class given is in vivo. The source says: This study was designed to define the tolerable toxic doses of the preparation, assess the degree and character of pathologic alterations in various organs and systems of the organism and reveal the dependence of toxic effects on the dosage and duration of the preparation intake.
Examined were 72 white mongrel male mice weighing 20–22 g. The mice were kept in vivarium under standard regimen and fed upon standard rations. They were randomised to six equal groups, 12 mice in each. The animals were once intramuscularly administered with 0.25 ml of the preparation in the doses of 1 mg/kg, 2 mg/kg, 3 mg/kg, 4 mg/kg and 5 mg/kg (several thousand times exceeding the therapeutic dose recommended for clinical trials). The control animals received the same amount of natural saline solution.
No alterations in their general state, behaviour, motor activity, hair and skin integument, physiological discharge were registered.

The test system of series [2] is patients with chronic persistent hepatitis. Put plainly: Clinical application in patients with chronic persistent hepatitis. The class given is in vivo, human. The procedure:
The trial was carried out on 23 patients aged 32–53 years. The disease duration constituted 10–20 years. 79% of the patients had virus hepatitis A in the case history and 11%—virus hepatitis B. The majority of the patients complained of pains in the right hypochondrium, general weakness and quick fatigability. 45% of the patients noted dyspeptic disorders. All the patients had previously received periodic conventional medications.
The control group included 12 analogous patients treated by conventional methods.
The patients' complaints were assessed in dynamics. Performed were total blood and urine counts, biochemical blood investigation (“REFLOTRON”, Boehringer Mannheim, Germany) and immune assay of the peripheral blood (definition of Ig according to Mancini). Ultrasound investigation of-the liver was carried out on an ultrasound apparatus (ALOKA, Japan). Against the background of the applied treatment 93% of the patients noted weakness elimination, improved appetite and increased workability. […] The biochemical test results were in the focus of attention during the patients' examination. They reflected aminotransferase activity, pigment- and protein-forming functions of the liver. 72% of the patients registered hyperbilirubinemia, increased level of alanine aminotransferase (ALT) and slight rise in γ-globulin fraction of the blood proteins, chiefly, due to IgM, which evidenced a certain activity of the chronic inflammatory process.

Series [3] has as its system liver fragments of 10–11-days old chicken embryos. Kind of series: Development of liver explants (square index). The class given is cell-based. Particulars: 20 ng/ml, third day of cultivation. The procedure: The experiments were carried out in 53 liver fragments of 10–11-days old chicken embryos. Nutrient medium for the explant cultivation consisted of 35% of Eagle's solution, 25% of foetal calf serum, 35% of Hank's solution and 5% of chicken embryonic extract. The mixture is added glucose (0.6%), insulin (0.5 unit/ml), penicillin (100 unit/ml) and glutamine (2 mM). The liver fragments were placed in this medium and cultivated in Petri's dishes in a thermostat at 36.7° C. during 48 hours. […] Square index (SI) was taken for a biological activity criterion and calculated as a correlation of the total explant square including the growth zone to the initial square of a liver fragment. The SI values were expressed per cent, the control SI value taken for 100%.

Another series relates to rats. Put plainly: Chronic toxicity, daily intramuscular injection for 6 months. The class given is in vivo. The settings on record: i.m. 1 μg/kg, 0.1 mg/kg, 1 mg/kg daily for 6 months. The procedure:
The animals were intramuscularly injected with the preparation in the doses of 1 μg/kg, 0.1 mg/kg, 1 mg/kg in 0.5 ml of natural saline solution, daily for 6 months. Their behaviour, food and water consumption, state of hair integument and mucous membranes were noted. The rats were weighed daily during the first three months of the experiment and then once a month. In three months after the administration onset and at the experiment completion, haematological and biochemical investigations were conducted. The functions of the cardiovascular system, liver, pancreas, kidneys and adrenal glands were assessed. At the end of the tetrapeptide administration, part of the animals were subjected to a post mortem examination to assess the state of various segments of their brain and spinal marrow, heart, aorta, lungs, liver, kidneys, endocrine and immune organs.

For series [4], the system named is hepatocyte monolayer culture of rats of various ages. Put plainly: Intensity of protein synthesis ([3H]-leucin inclusion) in monolayer hepatocyte culture. The class given is cell-based. The settings on record: 0.005 μg/ml, 4 hours. The procedure: The intensity of protein synthesis was investigated in a hepatocyte culture of rats aged 4, 8 and 18 months.
To isolate hepatocytes, rat liver was perfused with calcium-free Hanks' solution added 0.5 mM of EDTA and then 0.05% collagenase solution in Medium 199. The cellular suspension was filtered out and centrifuged. The hepatocyte suspension in the concentration of 5×10^5 was introduced into Petri's dishes, their bottoms surfaced with collagen-covered glass. Applied Medium 199 contained no bovine serum but was added 0.2 mg/ml of albumen and 5 μg/ml of insulin. The dishes with glass-covered bottoms were placed in a thermostat at 37° C., aerated and added CO2. […]
Protein synthesis was assessed by [^3H]-leucin inclusion regarding the standard errors for a free marked leucin pull in the same culture. […] Radioactivity of the pull of free intracellular leucin and cellular proteins (in hyamine fraction) after adding the corresponding scintillators was measured on a radioactivity counter SL-30.
The intensity of protein synthesis was calculated by the formula: Icorr=Ii×Pav/Pi(cpm), where
Icorr—inclusion of leucin regarding the standard errors of free leucin pull, Ii—measured radioactivity of the proteins for i-culture, Pav—mean radioactivity of proteins and pull for the cultures studied in this experiment, Pi—total radioactivity of proteins and pull of the same culture.

Setting [5] is: Day 5, 1 μg i.m. for 5 days accompanying CCl4 impact.
Setting [6] is: Day 20, 1 μg i.m. daily for 15 days after CCl4 impact.
Where [7] appears, read: Day 20, tetrapeptide after CCl4 impact.
Setting [8] is: after treatment, i.m. once a day 0.01–100 μg/kg, 10–40 days.
The mark [9] stands for this setting: against the background of the applied treatment.

Regarding `C[C@H](NC(=O)[C@H](CC(=O)O)NC(=O)[C@H](CCC(=O)O)NC(=O)[C@@H](N)CCCCN)C(=O)O` [Lys-Glu-Asp-Ala tetrapeptide, lysyl-glutamyl-aspartyl-alanine] (H-KEDA-OH), the “Pathologic alterations (general state, blood indices, organs, liver and kidney functions), subacute toxicity” value in the series on white mongrel rats is reported as “no pathologic alterations”. In series [1] (setting [5]), the ALT is 35.3 ± 3.8 international units per ml, the AST worked out at 35.6 ± 4.3 international unit per ml, the Cholesterol is listed as 4.1 ± 0.25 mm/l and the “Protein (blood)” value was 77.8 ± 3.7 g/L. Besides, the Total bilirubin in series [1] (setting [5]) is 12.5 ± 2.1 µmol/L. Further, in series [1] (Day 5, tetrapeptide accompanying CCl4 impact), the “Hepatocytes with fat inclusions” value is on record as 49.8 ± 6.3 %. In addition, in series [1] (setting [6]), the ALT was 5.3 ± 0.98 international units per ml, the AST is listed as 11.3 ± 1.9 international unit per ml, the Cholesterol was 4.2 ± 0.35 mm/l and the “Protein (blood)” value is 83.4 ± 3.4 g/L. The Total bilirubin in series [1] (setting [6]) was 14.8 ± 3.2 µmol/L. Moreover, in series [1] (setting [7]), the “Hepatocytes with fat inclusions” value was found to be 10.0 ± 2.1 % and the “Hepatocytes with glycogen synthesis” value turned out to be 90.0 ± 8.1 %. Further, the “Hepatocytes with negative staining for fat” value in series [1] (Day 20, tetrapeptide for 15 days after CCl4 impact) was found to be 90%. Besides, the “Concentration of protein, bilirubin, cholesterol and aminotransferases in the blood” value in series [1] (tetrapeptide during 15 days after the end of CCl4 impact) is listed as “restored to the normal values”. Besides, the “Tumour size relative to controls (times less)” value in the series with hepatoma-27 (30th day, 1 μg/kg s.c. daily for 10 days) was 2.5 times. Also, in the series with hepatoma-27, the “Mean life span (days after the tumour transplantation)” value is recorded as 68.00 ± 1.23 days, the Tumour growth result is “stable inhibition of the tumour growth” and the “Animals with complete tumour resolution” value is listed as “Three”. Besides, in the series on hepatoma-27 (tetrapeptide from the 39th day after transplantation, cyclophosphamide only on the 43rd day), the “Proportion of ulcer-bearing animals” value is “significant decrease in the proportion of ulcer-bearing animals”. The Acute toxic reactions result in the series on white mongrel male mice (doses several thousand times exceeding the therapeutic one) was “does not entail any acute toxic reactions”. The Death of animals entry with white mongrel male mice (single intramuscular 1, 2, 3, 4, 5 mg/kg, 72 hours and 14 days) is “none of the animals died”. In series [2] (after treatment), the IgA came to 2.30 ± 0.07 g/L, the IgG is 13.9 ± 0.9 g/L and the IgM was determined as 1.50 ± 0.03 g/L. For the same compound, in series [2] (setting [8]), the “ALT (peripheral blood)” value was 40.8 ± 3.1 mmol/L, the “AST (peripheral blood)” value came to 38.5 ± 2.4 mmol/L, the Bilirubin (peripheral blood) came to 21.7 µM and the “Cholesterol (peripheral blood)” value was determined as 5.1 ± 0.3 mmol/L. In series [2] (setting [8]), the “GGT (peripheral blood)” value was 41.6 ± 4.5 mmol/L and the “Triglycerides (peripheral blood)” value was 2.2 ± 0.2 mmol/L. Besides, in series [2] (setting [9]), the “Patients noting weakness elimination, improved appetite and increased workability” value was found to be 93%; the “Patients with significantly lower intensity of the pain syndrome” value amounted to 51%. In series [3], the “Increase in the explant square index (SI) compared to control” value came to 24%. Moreover, in the series with rats, the “Pathologic alterations (general state, blood indices, organs, liver and kidney functions), chronic toxicity” value is recorded as “no pathologic alterations”. For the same compound, in series [4] (hepatocytes of older rats), the “Protein synthesis oscillation amplitude” value is “increased significantly”. Besides, in series [4] (rats aged 4, 8 and 18 months, strongest effect in cells of older animals), the “Level of protein synthesis in hepatocytes” value is “raised the level of protein synthesis”.
Take `O=P1(N(CCCl)CCCl)NCCCO1` (centres unmarked) [Cyclophosphamide, reference compound]: in the series with hepatoma-27, the “Mean life span (days after the tumour transplantation)” value is recorded as 61.50 ± 4.58 days, the Tumour growth result is “stable decrease in the tumour growth rate” and the “Animals with complete tumour resolution” value is listed as “three”.
